These results are taken from ChEMBL document CHEMBL4425114, “Development of Novel Alkoxyisoxazoles as Sigma-1 Receptor Antagonists with Antinociceptive Efficacy” (J Med Chem, 2016).

Active and inactive are the calls of the source. The calls are words filed in the database; no cut-off is given here. A value given as a limit tells only on which side of the number the result lay.

Data set [1] addresses Sigma non-opioid intracellular receptor 1 (Rattus norvegicus, UniProt Q9R0C9). As to the kind of experiment: Displacement of [3H]-pentazocine from rat brain sigma1 receptor by PDSP assay. In general terms: Loss of bound radioactivity is the signal in a displacement assay; it reports binding, not function.
The target in data set [2] is T1, Sigma intracellular receptor 2 (Rattus norvegicus, UniProt Q5U3Y7).
T1 sequence (Q5U3Y7 whole entry): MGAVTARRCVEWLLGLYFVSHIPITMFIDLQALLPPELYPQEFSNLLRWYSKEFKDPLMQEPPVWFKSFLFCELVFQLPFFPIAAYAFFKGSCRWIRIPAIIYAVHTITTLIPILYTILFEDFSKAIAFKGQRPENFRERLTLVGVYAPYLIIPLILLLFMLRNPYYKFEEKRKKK
Nature of the data set: Displacement of [3H]DTG from rat brain sigma2 receptor by PDSP assay.

Data set [3] concerns the target T2, Sigma intracellular receptor 2 (Rattus norvegicus) (UniProt Q5U3Y7).
T2 sequence (whole entry): T1 sequence (Q5U3Y7 whole entry)
As to the kind of experiment: Displacement of [3H]DTG from rat brain sigma2 receptor at 10 uM by PDSP assay.

For data set [4], the target named is Sigma non-opioid intracellular receptor 1 (Cavia porcellus) (UniProt Q60492). As to the kind of experiment: Binding affinity to sigma1 receptor form guinea pig brain membrane in presence of phenytoin […].
The target in data set [5] is T3, Sodium-dependent dopamine transporter (Homo sapiens, UniProt Q01959). As to the kind of experiment: Displacement of [3H]-WIN35428 from human DAT expressed in HEK293 cells at 10 uM measured after 30 mins. It is filed as cell-based.
The target of data set [6] is Sigma non-opioid intracellular receptor 1 (Rattus norvegicus) (UniProt Q9R0C9). As to the kind of experiment: Displacement of [3H]-pentazocine from rat brain sigma1 receptor at 10 uM by PDSP assay.
A short description of data set [7]: Permeability of the compound after 18 hrs by PAMPA assay. Type of data set: ADME. The note with it: read-out: permeability. In general terms: PAMPA measures passive passage across an artificial lipid membrane.
Data set [8] addresses T3, Sodium-dependent dopamine transporter.
Description: Displacement of [3H]-WIN35428 from human DAT expressed in HEK293 cells measured after 30 mins
The target of data set [9] is T4, Sodium-dependent serotonin transporter (Homo sapiens, UniProt P31645). As to the kind of experiment: biochemical. Type of data set: cell-based, HEK293.
Target sequence in this assay (P31645 whole entry): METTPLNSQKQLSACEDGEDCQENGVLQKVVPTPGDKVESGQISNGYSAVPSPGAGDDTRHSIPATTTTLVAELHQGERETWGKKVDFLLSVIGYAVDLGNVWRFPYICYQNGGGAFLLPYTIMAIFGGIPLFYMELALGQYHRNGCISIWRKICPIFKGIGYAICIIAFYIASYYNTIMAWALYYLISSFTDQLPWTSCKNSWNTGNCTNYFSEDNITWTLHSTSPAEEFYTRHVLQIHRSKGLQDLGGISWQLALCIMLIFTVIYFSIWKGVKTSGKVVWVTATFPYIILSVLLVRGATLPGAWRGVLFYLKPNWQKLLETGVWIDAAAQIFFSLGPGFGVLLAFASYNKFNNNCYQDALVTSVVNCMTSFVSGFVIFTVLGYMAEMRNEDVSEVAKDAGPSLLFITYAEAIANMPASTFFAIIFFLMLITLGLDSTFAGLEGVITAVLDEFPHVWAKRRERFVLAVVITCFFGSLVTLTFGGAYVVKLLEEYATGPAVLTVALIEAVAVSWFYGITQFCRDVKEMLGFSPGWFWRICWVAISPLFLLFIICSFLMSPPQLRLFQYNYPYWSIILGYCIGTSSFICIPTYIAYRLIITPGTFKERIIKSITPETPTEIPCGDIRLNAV
Description: Displacement of [3H]citalopram from human SERT expressed in HEK293 cells measured after 30 mins
For data set [10], the target named is T4, Sodium-dependent serotonin transporter. The note with it: HEK293, at 10 µM.
Target sequence in this assay (P31645 whole entry, looked up): as the sequence (P31645 whole entry) above
Description: Displacement of [3H]citalopram from human SERT expressed in HEK293 cells at 10 uM measured after 30 mins
Data set [11] has as its target Sodium-dependent noradrenaline transporter (Homo sapiens, UniProt P23975). As to the kind of experiment: Displacement of [3H]nisoxetine from human NET expressed in HEK293 cells measured after 30 mins. It is filed as cell-based.
Data set [12] concerns Mus musculus. As to the kind of experiment: Antinociceptive activity in Kun Ming mouse assessed as reduction in paw licking and flinching time at 80 mg/kg, ip administered 15 mins prior to formalin challenge measured up to 45 mins post formalin dosing relative to vehicle-treated control. Type of data set: functional, organism-based.
Data set [13] is described as follows: Toxicity in Kun Ming mouse assessed as decrease in rotarod latency at 40 mg/kg, ip measured after 60 to 120 mins by rotarod test relative to vehicle-treated control. It is filed as organism-based. The note with it: in vivo.

What is called Ki is a measure of affinity in units of concentration, obtained from inhibition or displacement. A high value points to a looser hold on the target. Broadly, the inhibition is the change of the read-out against control, counted positive when it falls. Low values mean a response near the control, high ones a response far below the control.

Sequence of Sigma non-opioid intracellular receptor 1 (Rattus norvegicus) (Q9R0C9 whole entry): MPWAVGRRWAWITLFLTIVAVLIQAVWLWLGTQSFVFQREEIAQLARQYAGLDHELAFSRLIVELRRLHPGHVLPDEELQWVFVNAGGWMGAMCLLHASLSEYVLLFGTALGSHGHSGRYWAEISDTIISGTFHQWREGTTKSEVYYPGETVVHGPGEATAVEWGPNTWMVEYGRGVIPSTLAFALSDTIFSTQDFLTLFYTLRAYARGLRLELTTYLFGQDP
Sequence of Sigma non-opioid intracellular receptor 1 (Q9R0C9 whole entry): as above
T3 sequence (Q01959 whole entry): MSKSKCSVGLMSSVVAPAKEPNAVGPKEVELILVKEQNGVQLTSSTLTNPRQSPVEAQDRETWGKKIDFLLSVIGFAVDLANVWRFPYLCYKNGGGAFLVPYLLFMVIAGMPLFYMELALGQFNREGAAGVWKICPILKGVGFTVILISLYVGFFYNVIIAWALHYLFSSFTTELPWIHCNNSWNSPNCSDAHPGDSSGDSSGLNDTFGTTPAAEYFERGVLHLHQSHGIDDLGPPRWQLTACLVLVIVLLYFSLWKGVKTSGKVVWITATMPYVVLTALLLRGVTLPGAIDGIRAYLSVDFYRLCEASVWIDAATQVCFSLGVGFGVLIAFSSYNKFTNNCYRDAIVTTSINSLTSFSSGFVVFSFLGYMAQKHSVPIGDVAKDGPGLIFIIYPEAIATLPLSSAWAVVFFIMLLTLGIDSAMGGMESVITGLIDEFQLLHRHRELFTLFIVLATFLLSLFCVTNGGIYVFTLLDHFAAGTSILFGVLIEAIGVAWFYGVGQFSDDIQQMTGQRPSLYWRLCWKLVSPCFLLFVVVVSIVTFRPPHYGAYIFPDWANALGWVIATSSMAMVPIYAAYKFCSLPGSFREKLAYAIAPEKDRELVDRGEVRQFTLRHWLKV
Sequence of Sigma non-opioid intracellular receptor 1 (Cavia porcellus) (Q60492 whole entry): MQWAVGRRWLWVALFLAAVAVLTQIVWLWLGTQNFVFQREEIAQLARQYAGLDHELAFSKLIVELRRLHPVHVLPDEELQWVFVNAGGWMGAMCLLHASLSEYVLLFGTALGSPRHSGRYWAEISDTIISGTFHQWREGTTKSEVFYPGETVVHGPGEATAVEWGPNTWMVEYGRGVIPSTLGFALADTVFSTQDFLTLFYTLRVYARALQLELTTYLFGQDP
Sequence of Sodium-dependent noradrenaline transporter (P23975 whole entry): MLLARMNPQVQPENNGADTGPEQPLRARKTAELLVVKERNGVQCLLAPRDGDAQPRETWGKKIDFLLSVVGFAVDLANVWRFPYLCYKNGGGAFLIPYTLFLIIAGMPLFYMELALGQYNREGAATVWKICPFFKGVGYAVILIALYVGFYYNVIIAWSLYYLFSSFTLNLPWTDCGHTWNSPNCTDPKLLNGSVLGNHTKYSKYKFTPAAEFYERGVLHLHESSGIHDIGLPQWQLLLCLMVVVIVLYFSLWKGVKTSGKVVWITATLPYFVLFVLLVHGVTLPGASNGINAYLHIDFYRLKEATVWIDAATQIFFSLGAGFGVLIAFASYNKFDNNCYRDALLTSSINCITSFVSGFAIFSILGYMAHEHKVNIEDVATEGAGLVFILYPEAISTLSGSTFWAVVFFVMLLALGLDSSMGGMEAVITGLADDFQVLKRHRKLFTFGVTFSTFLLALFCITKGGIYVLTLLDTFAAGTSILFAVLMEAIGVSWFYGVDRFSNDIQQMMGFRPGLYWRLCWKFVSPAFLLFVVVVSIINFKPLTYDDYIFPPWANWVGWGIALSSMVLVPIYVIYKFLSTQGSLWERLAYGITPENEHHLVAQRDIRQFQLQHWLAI

Consider `CN(CCOc1cc(COc2cccc(Cl)c2)on1)CC1CC1`, for which the inhibition constant (Ki) in [1] stood at 1.1 nM; in [2] it was 123 nM.
Consider `CN(CCOc1cc(COc2cccc(F)c2)on1)C1CCCCC1`, for which the inhibition constant Ki came out at 0.5 nM in data set [1] and 24.5 nM in [2].
`NCCCOc1cc(COc2ccccc2)on1`: the values for the Ki in data set [1] and in data set [2] were 2310 nM and > 10000 nM, respectively. The inhibition in data set [3] was < 50%.
Consider `CNCCOc1cc(COc2ccccc2)on1`, for which the values for the inhibition constant Ki in data set [1] and in [2] were 80.8 nM and > 10000 nM, respectively. Moreover, the inhibition in [3] was < 50%.
As for `Brc1cccc(OCc2cc(OC[C@@H]3CCCN3)no2)c1`, the Ki was 3.2 nM in data set [1] and 85.9 nM in data set [2].
On to `CN1CCC(COc2cc(COc3ccccc3)on2)CC1`, for which the inhibitory constant (Ki) in [1] was 96.4 nM; in data set [2], 216 nM.
As for `O=C(Nc1ccccc1)OCc1cc(OC[C@@H]2CCCN2)no1`, the inhibitory constant (Ki) in data set [1] was 299 nM; in data set [2], > 10000 nM. For the same compound, the inhibition in data set [3] is < 50%.
On to `CN1CCC[C@@H]1COc1cc(COc2ccccc2)on1`, for which the Ki in data set [1] was determined as 23.1 nM; in [2], 411 nM.
Take `CN1CCN(c2cc(COc3ccccc3)on2)CC1`: the Ki in data set [1] was found to be 63.9 nM; in data set [2], 2200 nM.
Take `O=C(Nc1ccccc1)c1cc(OC[C@@H]2CCCN2)no1`: the Ki was 130 nM in [1] and > 10000 nM in data set [2]. Also, the inhibition in [3] was < 50%.
Regarding `CN1CCC[C@H]1COc1cc(COc2cccc(Cl)c2)on1`, the inhibitory constant (Ki) in data set [1] is 1.4 nM; in data set [2], 371 nM.
In the case of `c1ccc(OCc2cc(OC[C@H]3CCCN3)no2)cc1`, the inhibition constant (Ki) in [1] was 37.4 nM; in data set [2], 508 nM.
For `c1ccc(SCc2cc(OC[C@@H]3CCCN3)no2)cc1` the same measures were 65.4 nM and 1030 nM.
For `CCN(C)CCOc1cc(COc2ccccc2)on1`, the results for the Ki in [1] and in data set [2] were 18.4 nM and 820 nM, respectively.
On to `CN(CCOc1cc(COc2ccccc2)on1)C1CCC1`, for which the outcome in [4] was inactive. Also, the Ki in data set [1] stood at 1.8 nM; in data set [2], 307 nM.
As to `Fc1ccc(C(OCCN2CCN(CCCc3ccccc3)CC2)c2ccc(F)cc2)cc1`, in [5], the inhibition is > 50%.
Consider `FC(F)(F)c1cccc(OCc2cc(OC[C@@H]3CCCN3)no2)c1`, for which the figures for the Ki in data set [1] and in data set [2] were 6.6 nM and 88 nM, respectively.
Regarding `O=C(Oc1ccccc1)c1cc(OC[C@@H]2CCCN2)no1`, the Ki in data set [1] and in [2] was > 10000 nM in each case. The inhibition in data set [6] and in data set [3] was < 50% throughout.
Regarding `Cl.Fc1cccc(OCc2cc(OC[C@@H]3CCCN3)no2)c1`, in data set [4], the result was inactive. Moreover, the inhibition constant Ki in data set [1] came out at 1.4 nM; in [2] it was 277 nM. Also, in [7], the Papp at 18 h lay in the range of 2 to 4 ×10⁻⁶ cm/s.
Take `Fc1ccccc1OCc1cc(OC[C@@H]2CCCN2)no1`: the inhibition in data set [5] was < 50%; in data set [10] it was < 50%; in data set [6], > 50%. The inhibition constant Ki in [1] was 6 to 6.1 nM; in data set [8] it was > 10000 nM; in data set [9], > 10000 nM; in data set [11] it was 1080 nM; in [2], 396 nM.
Consider `Cc1cc(OCCN2CCOCC2)nn1-c1ccc2ccccc2c1`, for which the result in data set [4] was inactive. Also, the Papp at 18 h in data set [7] was in the range of 2 to 4 ×10⁻⁶ cm/s. The outcome in [12] was Active.
On to `COc1cccc(OCc2cc(OC[C@@H]3CCCN3)no2)c1`, for which the Ki in data set [1] was 31.1 nM; in [2], > 10000 nM. Besides, in data set [3], the inhibition was < 50%.
Regarding `CN(CCOc1cc(COc2ccccc2)on1)C1CCCC1`, the inhibitory constant (Ki) in [1] was determined as 0.5 nM; in data set [2] it was 73.7 nM.
Take `CN1CCC[C@H]1COc1cc(COc2ccccc2)on1.Cl`: the Ki worked out at 3.4 nM in data set [1] and 665 nM in data set [2]. The Papp at 18 h in data set [7] was in the range of 2 to 4 ×10⁻⁶ cm/s.
Regarding `Clc1ccc(OCc2cc(OC[C@@H]3CCCN3)no2)cc1`, the inhibitory constant (Ki) in data set [1] amounted to 13 nM; in data set [2], 139 nM.
As to `CN(C)CCOc1cc(COc2ccccc2)on1`, the Ki in data set [1] and in [2] was > 10000 nM throughout. The inhibition in data set [6] and in data set [3] was < 50% in each case.
On to `CN(CCOc1cc(COc2ccccc2)on1)C1CCCCC1`, for which the inhibition was < 50% in [5], < 50% in data set [10] and > 50% in data set [6]. The inhibition constant (Ki) was 0.3 nM in [1]; > 10000 nM in data set [8]; > 10000 nM in [9]; > 10000 nM in data set [11]; 18.7 nM in [2].
Take `c1ccc(OCc2cc(OC[C@@H]3CCCN3)no2)cc1`: the result in [4] was inactive. Besides, the Papp at 18 h in [7] was 2 to 4 ×10⁻⁶ cm/s.
Consider `c1ccc2cc(OCc3cc(OC[C@@H]4CCCN4)no3)ccc2c1`, for which the Ki turned out to be 36.6 nM in [1] and 153 nM in data set [2].
On to `Cc1cccc(OCc2cc(OC[C@@H]3CCCN3)no2)c1`, for which the Ki in data set [1] was 4 nM; in data set [2], 341 nM.
As for `FC(F)(F)c1ccc(OCc2cc(OC[C@@H]3CCCN3)no2)cc1`, the Ki worked out at 13.3 nM in data set [1] and 91.7 nM in [2].
For `Clc1cccc(OCc2cc(N3CCNCC3)no2)c1`, the figures for the inhibitory constant (Ki) in [1] and in data set [2] were 36.5 nM and 687 nM, respectively.
Consider `Clc1ccccc1OCc1cc(OC[C@@H]2CCCN2)no1`, for which the inhibition in data set [5] is < 50%; in data set [10] it was > 50%; in [6], > 50%. Also, the inhibition constant (Ki) in [1] was 2.7 nM; in data set [8] it was > 10000 nM; in data set [9] it was 2950 nM; in data set [11], 2110 nM; in [2] it was 165 nM.
With `Clc1cccc(OCc2cc(OC[C@@H]3CCCN3)no2)c1.O=C(O)C(F)(F)F`, the outcome in [4] was inactive. The inhibitory constant (Ki) in data set [1] was 2.6 nM; in data set [2], > 10000 nM. Besides, in data set [7], the Papp at 18 h was in the range of 2 to 4 ×10⁻⁶ cm/s. Besides, in [3], the inhibition is < 50%.
Turning to `c1ccc(OCc2cc(OCCN3CCOCC3)no2)cc1`, the Ki is 403 nM in [1] and > 10000 nM in [2]. Moreover, the inhibition in data set [3] is < 50%.
Take `Cl.c1ccc(OCc2cc(N3CCNCC3)no2)cc1`: the figures for the inhibition in [5], in data set [10] and in data set [6] were > 50%, < 50% and > 50%, respectively. Also, the inhibitory constant (Ki) in data set [1] is 5.3 nM; in [8], 497 nM; in [9], > 10000 nM; in data set [11], 163 nM; in data set [2] it was 221 nM. In data set [7], the Papp at 18 h was 7.36 ×10⁻⁶ cm/s.
Take `Brc1ccc(OCc2cc(OC[C@@H]3CCCN3)no2)cc1`: the Ki was 18.3 nM in data set [1] and 137 nM in data set [2].
Regarding `Fc1ccc(OCc2cc(OC[C@@H]3CCCN3)no2)cc1`, the inhibition constant (Ki) in data set [1] is 4.4 nM; in data set [2], 471 nM.
Regarding `c1ccc(OCc2cc(N3CCOCC3)no2)cc1`, the Ki in data set [1] and in [2] was > 10000 nM in each case. For the same compound, the inhibition in data set [6] and in data set [3] was < 50% throughout.
As for `CN(CCOc1cc(COc2cccc(Cl)c2)on1)C1CCCCC1`, the Ki in data set [1] was determined as 0.5 nM; in data set [2], 15.1 nM.
Take `c1ccc(OCc2cc(N3CCCCC3)no2)cc1`: the Ki in data set [1] and in data set [2] was > 10000 nM throughout. In addition, the inhibition in [6] and in data set [3] was < 50% in each case.
As to `CCNCCOc1cc(COc2ccccc2)on1`, the figures for the Ki in [1] and in data set [2] were 3.7 nM and 987 nM, respectively.
With `COc1ccc(OCc2cc(OC[C@@H]3CCCN3)no2)cc1`, the results for the Ki in data set [1] and in data set [2] were 210 nM and 675 nM, respectively.
As to `CN(CCOc1cc(COc2cccc(F)c2)on1)CC1CC1`, the Ki in [1] turned out to be 0.9 nM; in data set [2], 314 nM.
As to `c1ccc(OCc2cc(OCC3CCNCC3)no2)cc1`, the Ki worked out at 356 nM in data set [1] and 284 nM in data set [2].
Regarding `O=C(c1cc(OC[C@@H]2CCCN2)no1)N1CCc2ccccc21`, the Ki in [1] is 13.9 nM; in data set [2] it was > 10000 nM. For the same compound, the inhibition in [3] was < 50%.
The corresponding values for `NCCOc1cc(COc2ccccc2)on1` are 63.9 nM, > 10000 nM and < 50%.
On to `CN1CCC[C@H]1COc1cc(COc2cccc(F)c2)on1`, for which the Ki in data set [1] came out at 0.7 nM; in data set [2] it was 687 nM.
Take `CC(C)C[C@H](CN)CC(=O)O` [PREGABALIN]: the Activity entry in [13] is given as “Toxic”.
